Columns and labels:
[1] = target: T1, amylosucrase (ams) (Faecalibacterium duncaniae, UniProt C7H8X5); test: MALDI-TOF-MS of products, lysate of overexpressing E. coli; type: biochemical; conditions: 10 mg/ml sucrose, 50 mM sodium phosphate, 37°C, 10 min; 36 ng soluble lysate protein
T1 construct: gene FAEPRAA2165_02769; full-length ORF amplified from genomic DNA, pET28a (BamHI/XhoI sites in primers, tag kept if any), E. coli BL21(DE3), soluble lysate; EC 2.4.1.4, GH13; primers encode N-term MAAKQE, C-term LVKNK
T1 sequence (C7H8X5 1-609): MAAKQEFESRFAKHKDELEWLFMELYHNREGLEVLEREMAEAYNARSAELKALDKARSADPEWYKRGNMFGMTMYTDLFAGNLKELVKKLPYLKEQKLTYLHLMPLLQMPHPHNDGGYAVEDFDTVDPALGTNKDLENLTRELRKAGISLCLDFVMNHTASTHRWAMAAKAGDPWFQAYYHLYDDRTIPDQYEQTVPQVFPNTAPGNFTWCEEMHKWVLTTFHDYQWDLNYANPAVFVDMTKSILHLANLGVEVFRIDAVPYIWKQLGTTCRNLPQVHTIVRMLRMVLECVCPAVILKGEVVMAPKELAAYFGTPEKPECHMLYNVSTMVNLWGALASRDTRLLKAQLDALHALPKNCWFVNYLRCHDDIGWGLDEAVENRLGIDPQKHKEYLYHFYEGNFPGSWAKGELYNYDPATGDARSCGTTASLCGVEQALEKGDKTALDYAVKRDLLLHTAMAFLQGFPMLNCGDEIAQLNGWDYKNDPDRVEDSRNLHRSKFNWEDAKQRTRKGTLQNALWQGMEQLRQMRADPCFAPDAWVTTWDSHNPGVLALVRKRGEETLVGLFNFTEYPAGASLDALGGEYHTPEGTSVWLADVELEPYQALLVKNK

[2] = target: T2, β-fructosidase (bfrA) (Faecalibacterium duncaniae, UniProt C7H8W7); test: as above; type: biochemical; conditions: 10 mg/ml sucrose, 50 mM sodium phosphate, 37°C, 10 min; 36 ng soluble lysate protein
T2 construct: gene FAEPRAA2165_02761; full-length ORF amplified from genomic DNA, pET28a (BamHI/XhoI sites in primers, tag kept if any), E. coli BL21(DE3), soluble lysate; EC 3.2.1.26, GH32; primers encode N-term MNDLTL, C-term FELNL
T2 sequence (C7H8W7 1-491): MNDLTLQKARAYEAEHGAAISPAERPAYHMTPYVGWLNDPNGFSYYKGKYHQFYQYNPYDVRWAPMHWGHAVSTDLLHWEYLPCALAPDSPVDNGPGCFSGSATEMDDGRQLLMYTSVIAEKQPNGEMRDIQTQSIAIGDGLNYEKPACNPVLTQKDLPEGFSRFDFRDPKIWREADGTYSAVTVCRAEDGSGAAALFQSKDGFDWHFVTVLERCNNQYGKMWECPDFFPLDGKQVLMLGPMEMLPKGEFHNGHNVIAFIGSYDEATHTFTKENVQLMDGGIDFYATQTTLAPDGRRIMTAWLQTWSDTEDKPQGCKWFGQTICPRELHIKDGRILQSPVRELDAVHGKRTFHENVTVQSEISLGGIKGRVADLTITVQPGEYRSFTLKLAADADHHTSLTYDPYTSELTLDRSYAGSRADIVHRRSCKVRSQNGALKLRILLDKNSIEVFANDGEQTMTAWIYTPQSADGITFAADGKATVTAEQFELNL

## OC[C@H]1O[C@@](CO)(O[C@H]2O[C@H](CO)[C@@H](O)[C@H](O)[C@H]2O)[C@@H](O)[C@@H]1O [sucrose]
[1]
  MALDI-TOF-MS of products, lysate of overexpressing E. coli: sucrose was degraded by the pET28a-ams and pET28a-bfrA recombinant strains
[2]
  MALDI-TOF-MS of products, lysate of overexpressing E. coli: sucrose was degraded by the pET28a-ams and pET28a-bfrA recombinant strains

— article PMC8894670, “An Integrative Multiomics Approach to Characterize Prebiotic Inulin Effects on Faecalibacterium prausnitzii” (Frontiers in Bioengineering and Biotechnology, 2022)
